Experimental data as given in patent US20160303184A1, “VANCOMYCIN-SUGAR CONJUGATES AND USES THEREOF” (JAWAHARLAL NEHRU CENTRE FOR ADVANCED SCIENTIFIC RESEARCH …, priority 2013, published 2016).
Values after ≈ are worked out from the molar mass of the structure shown. “Also recorded” adds a separate entry of the source. Like-named read-outs stand apart in the source and are kept apart here.

Legend:
[1] = system: Methicillin-resistant S. aureus (ATCC 33591); assay: MIC, micro-dilution broth, MRSA; type: cell-based; conditions: Staphylococcus aureus, read-out: MIC MRSA
Protocol: (§1) All test compounds were assayed in a micro-dilution broth format. Stock solutions were made by serially diluting the compounds using autoclaved millipore water or broth media. The antibacterial activity of the compounds was determined against methicillin-sensitive S. aureus (MSSA), methicillin-resistant S. aureus (MRSA), vancomycin-intermediate-resistant S. aureus (VISA), vancomycin-sensitive E. faecium (VSE) and vancomycin-resistant E. faecium (VRE). Bacteria, to be tested, were grown for about 10 h in the suitable media, MSSA, MRSA and VISA were grown in yeast-dextrose broth (about 1 g of beef extract, about 2 g of yeast extract, about 5 g of peptone and about 5 g of NaCl in about 1000 mL of sterile distilled water (pH-7)). For solid media, about 5% agar was used along with above mentioned composition. VSE and VRE were cultured in brain heart infusion broth (Himedia). The bacterial samples were freeze dried and stored at −80° C. About 5 μL of these stocks were added to about 3 mL of the nutrient broth and the culture was grown for about 6 h at about 37° C. prior to the experiments. This 6 h grown culture gives about 10^9 cfu/mL and this was determined by spread plating method. The 6 h grown culture was diluted to give effective cell concentration of about 10^5 cfu/mL which was then used for determining MIC. Compounds were serially diluted, in sterile water (2 fold dilution is employed) in a way that the working concentration was about 10 μM for MSSA, MRSA, and VSE while for VRE and VISA it was about 100 μM. About 50 μL of these serial dilutions were added to the wells of 96 well plate followed by the addition of about 150 μL of bacterial solution. The plates were then incubated at about 37° C., 150 rpm in the incubator and O.D at 600 nm was recorded at an interval of about 10 h and 24 h using TECAN (Infinite series, M200 pro) Plate Reader. Each concentration had triplicate values and the whole experiment was done at least twice and the MIC value was determined by taking the average of triplicate. O. D. values for each concentration and plotting it against concentration. The data was then subjected to sigmoidal fitting. From the curve the MIC value was determined, as the point in the curve where the O. D. was similar to that of control having no bacteria.

[2] = system: Vancomycin intermediate resistant S. aureus; assay: MIC, micro-dilution broth, VISA; type: cell-based; conditions: VISA
Protocol: as §1

[3] = system: Vancomycin-sensitive E. faecium (ATCC 19634); assay: MIC, micro-dilution broth, VSE; type: cell-based; conditions: Enterococcus faecium, ATCC19634, read-out: MIC VSE
Protocol: as §1

[4] = system: Vancomycin-resistant E. faecalis (VanA, ATCC 51575); assay: MIC, micro-dilution broth, VRE (VanB); type: cell-based; conditions: Enterococcus faecalis, read-out: MIC VRE (VanB)
[5] = system: methicillin-resistant S. aureus clinical isolate; assay: MIC, clinical isolate of methicillin-resistant S. aureus; type: cell-based; conditions: Staphylococcus aureus, read-out: MIC S. aureus
Protocol: as §1

VISA [6] = assay: Ex-vivo whole blood assay; type: cell-based, S. aureus; conditions: 3 h incubation in 90% human whole blood
Protocol: Ex-vivo whole blood assay was performed to compare the abilities of these compounds to retain activity in complex media. To 30 μL of VISA in saline (0.9% NaCl; 10^6 CFU/mL) 10 μL of test compounds (vancomycin and compound 7) and 270 μL of fresh human whole blood were added and incubated, at 37° C. for about 3 h. After the incubation period, antibacterial activity was determined by finding the bacterial titer in the infected blood.

VISA [7] = assay: In-vivo time dependent whole blood assay; design: species or system S. aureus; conditions: 12 mg/kg single i.v., CD-1 mice
Protocol: The derivative 7 and vancomycin were administered in a single intravenous injection (0.2 mL saline) to normal pathogen-free, female CD-1 mice. Doses of 12 mg kg^−1 were administered to three mice per data point. At the specified time-points (0, 3, 6, 12, 24 and 48 h) mice were euthanized (using ether), blood samples were collected from the ocular puncture. 60 μL of VISA in saline (0.9% NaCl; 10^6 CFU/mL) was added to 540 μL of whole blood which was drawn from the mice and incubated at 37° C. for 3 h. After the incubation period, antibacterial activity was determined by finding the bacterial titer in the infected blood.

MR-VISA = assay: Pharmacodynamics against MR-VISA thigh infection, single dose; type: in vivo, Staphylococcus aureus; conditions: single i.v. dose; for ED50: 50% maximal bacterial killing; for EDstasis: 24-h colony count similar to pretreatment count
Protocol: Data are expressed as means±SD (error bars). A separate single-dose study of compound 7 was performed in neutropenic mice inoculated in the thigh with 50 μL of MR-VISA (10^7 CFU/ml). Infected animals were treated intravenously, at 1 h post infection, with 2 mg/kg, 4 mg/kg, 8 mg/kg and 12 mg/kg. At 24 h post inoculation mice were sacrificed and the thigh tissues were harvested for determination of bacterial titer as mentioned above.

[8] = Acute toxicity (blood biochemistry, liver and kidney histology); type: in vivo, mice; conditions: 12 mg/kg i.v.
Protocol: For the evaluation of the acute toxicity, two groups of 10 mice each received intravenous injection of compound 7 at 12 mg/kg in 0.2 ml of sterilized saline. 10 mice were sacrificed at 48 h and the rest mice at 14 days to collect blood samples for analysis of biochemical parameters such as alanine transaminase (ALT), alkaline phosphatase (ALP), urea nitrogen, creatinine, sodium ion, potassium ion and chloride ion levels. Blood samples were analyzed at Gokula Metropolis clinical laboratory, Bengaluru, India. And also to examine the adverse effects of compound 7 in tissue level, we have isolated liver and kidney organs in 10% neutral formalin. Tissues were processed by dehydration in ascending grades of ethyl alcohol, clearing in xylol, embedding in paraffin wax and prepared sections of 5 μm thickness. Then paraffin sections were stained using haematoxylin and eosin, and observed under light microscope for histological changes.

## CCCCCCCCCCN[C@]1(C)C[C@H](OC2C(O)[C@@H](O)C(CO)O[C@@H]2Oc2c3cc4cc2Oc2ccc(cc2Cl)[C@@H](O)[C@@H](NC(=O)[C@@H](CC(C)C)NC)C(=O)N[C@@H](CC(N)=O)C(=O)N[C@H]4C(=O)N[C@H]2C(=O)N[C@H](C(=O)N[C@H](C(=O)NCCCNC(=O)[C@H](O)[C@@H](O)[C@H](OC4OC(CO)C(O)C(O)[C@H]4O)[C@H](O)CO)c4cc(O)cc(O)c4-c4cc2ccc4O)[C@H](O)c2ccc(c(Cl)c2)O3)OC(C)[C@@H]1O (stereo partly drawn) [Compound 7]
[1]
  MIC: 0.3 µM (≈ 0.596 µg/mL)
[2]; Staphylococcus aureus, read-out: MIC VISA
  MIC: 0.2 µM (≈ 0.397 µg/mL)
[2]
  fold more active than vancomycin: about 65 fold
[3]
  MIC: 0.15 µM (≈ 0.298 µg/mL)
[4]
  MIC: 1 µM (≈ 1.99 µg/mL)
[5]
  MIC: 0.3 µM (≈ 0.596 µg/mL)
VISA [6]
  bactericidal activity in whole blood: rapid bactericidal activity
VISA [7]; blood drawn up to 24 h, VISA
  CFU/mL reduction: 3 log10 CFU/mL
VISA [7]; blood incubated with VISA 3 h
  time after dosing up to which blood showed antibacterial activity: 24 h
MR-VISA; Staphylococcus aureus, VISA, in Mus musculus, iv, 24 h, neutropenic mice thigh, 24 h, read-out: ED50
  ED50: 1.05 mg/kg
MR-VISA; neutropenic mice thigh, 24 h
  ED1-log kill: 3.7 mg/kg
  ED2-log kill: 8.8 mg/kg
  ED2.6-log kill: 12 mg/kg
  ED50: 1.0 mg/kg
MR-VISA
  EDstasis: 2.2 mg/kg
MR-VISA; listed as compound 7
  EDstasis: 2.22 mg/kg
[8]; 48 h and 14 days
  acute damage to liver and kidney functions: did not cause any significant acute damage; also recorded: no significant acute damage
[8]; 48 h post-treatment
  Chloride ion: 112.9 ± 1.52 mmol/L
  Kidney Creatinine: 0.2 ± 0.133 mg/dL
  Liver ALT: 55.23 ± 5.24 U L^−1
  Potassium ion: 6.86 ± 0.81 mmol/L
  Sodium ion: 143.63 ± 1.65 mmol/L
  Urea Nitrogen: 19.52 ± 3.25 mg/dL
[8]; 14 days post treatment
  Chloride ion: 110.85 ± 2.16 mmol/L
  Kidney Creatinine: 0.22 ± 0.1 mg/dL
  Liver ALT: 53.28 ± 3.78 U L^−1
  Potassium ion: 6.75 ± 0.833 mmol/L
  Sodium ion: 143.04 ± 0.71 mmol/L
  Urea Nitrogen: 24.46 ± 4.93 mg/dL
[8]; compared to control
  gross anatomical and histopathological examination of liver and kidney sections: no significant changes
